Data on one compound can be found in patent US5506207A, “GNRH antagonists XIII” (The Salk Institute for Biological Studies, priority 1994, dated 1996).

Data set [1] has as its system mature female Sprague-Dawley rats. As to the kind of experiment: examination of treated rats for tolerance and gelling at the point of injection. Conditions: rats injected with peptide in bacteriostatic water. The data set is classed as in vivo, rat.
Data set [2] can be described thus: solubility in aqueous buffers. Conditions: pH from about 5 to about 7. The data set is classed as physicochemical.

“Also recorded” adds a separate entry of the source. Square brackets hold non-standard residues; d marks the D form. Peptide text beside a SMILES is read from it. * marks the point of attachment. dPhe(4-NH2) = Nc1ccc(C[C@@H](N)C(=O)O)cc1; dPhe(4-Cl) = N[C@H](Cc1ccc(Cl)cc1)C(=O)O; Phe(4-NH2) = Nc1ccc(C[C@H](N)C(=O)O)cc1; d2Nal = N[C@H](Cc1ccc2ccccc2c1)C(=O)O; Lys(iPr) = CC(C)NCCCC[C@H](N)C(=O)O; d3Pal = N[C@H](Cc1cccnc1)C(=O)O; X1 = Nc1n[nH]c(NCC(=O)*)n1

`CC(=O)N[C@H](Cc1ccc2ccccc2c1)C(=O)N[C@H](Cc1ccc(Cl)cc1)C(=O)N[C@H](Cc1cccnc1)C(=O)N[C@@H](CO)C(=O)N[C@@H](Cc1ccc(NC(=O)CNc2nc(N)n[nH]2)cc1)C(=O)N[C@H](Cc1ccc(NC(=O)CNc2nc(N)n[nH]2)cc1)C(=O)N[C@@H](CC(C)C)C(=O)N[C@@H](CCCCNC(C)C)C(=O)N1CCC[C@H]1C(=O)N[C@H](C)C(N)=O` [Peptide No. 1, [Ac-β-D-2NAL^1, (4Cl)D-Phe^2, D-3PAL^3, Aph(Gly)(atz)^5, D-Aph(Gly)(atz)^6, ILys^8, D-Ala^10]-GnRH] (Ac-[d2Nal][dPhe(4-Cl)][d3Pal]S[Phe(4-NH2)](X1)[dPhe(4-NH2)](X1)L[Lys(iPr)]P[dA]-NH2): the “tolerance and gelling at the point of injection” value in data set [1] is on record as “very well tolerated with no significant gelling at the point of injection being detectable; also recorded: resistance to in vivo gelling”. The “solubility in aqueous buffers” value in data set [2] is listed as “solubility in aqueous buffers at a pH of from about 5 to about 7”.
